The record followed here is ChEMBL document CHEMBL1159191, “2-alkyl-4-ethyl-5-[6-methyl-6-(2H-tetrazol-5-yl)heptyloxy]phenol leukotriene B4 receptor antagonists” (Bioorg Med Chem Lett, 1995).

Structures are written as SMILES.

The species named for one assay is Cavia porcellus. Kind of assay: Compound was evaluated for antagonism of LTB4 effect on guinea pig lung strip contraction. In kind it is functional.
The target in assay [1] is Leukotriene B4 receptor 1 (Homo sapiens, UniProt Q15722). Description: Binding affinity against human neutrophil Receptor.
A further assay addresses Leukotriene B4 receptor (Homo sapiens, UniProt Q9NPC1+Q15722). Description: LTB4-induced up-regulation of CD11b/CD18 in human neutrophils. In kind it is functional.

Chain of Leukotriene B4 receptor 1 (Q15722 whole entry): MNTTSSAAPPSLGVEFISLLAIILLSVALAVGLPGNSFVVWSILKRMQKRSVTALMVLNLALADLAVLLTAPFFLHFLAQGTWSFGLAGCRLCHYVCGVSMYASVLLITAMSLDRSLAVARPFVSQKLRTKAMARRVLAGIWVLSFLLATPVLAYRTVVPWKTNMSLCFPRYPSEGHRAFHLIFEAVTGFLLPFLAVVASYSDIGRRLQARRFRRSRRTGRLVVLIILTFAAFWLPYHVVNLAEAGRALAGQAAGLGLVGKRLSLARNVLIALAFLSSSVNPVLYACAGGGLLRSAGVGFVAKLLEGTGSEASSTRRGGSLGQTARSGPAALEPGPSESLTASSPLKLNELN

The compound `CCCCc1cc(CC)c(OCCCCCC(C)(C)c2nn[nH]n2)cc1O` had a Kb in the assay listed under Cavia porcellus of 0.053 µM. `CCCCCOc1cc(CC)c(OCCCCCC(C)(C)c2nn[nH]n2)cc1O` yielded a Kb in the assay filed under Cavia porcellus of 0.216 µM. On the same count and under the same terms, the same measure for `CCc1cc(OC)c(O)cc1OCCCCCC(C)(C)c1nn[nH]n1`: 0.222 µM; for `CCOc1cc(CC)c(OCCCCCC(C)(C)c2nn[nH]n2)cc1O`: 0.264 µM. Consider `CCCCCCc1cc(CC)c(OCCCCCC(C)(C)c2nn[n-]n2)cc1O.[Na+]`, for which, in assay [1], the affinity corresponds to a Ki of 0.0284 µM. Besides, the Kb in the assay filed under Cavia porcellus came to 0.688 µM. For the same compound, the IC50 at Leukotriene B4 receptor turned out to be 0.878 µM. `CCCc1cc(CC)c(OCCCCCC(C)(C)c2nn[nH]n2)cc1O` registered a Ki in assay [1] of 0.00553 µM. In the assay listed under Cavia porcellus, this compound returned a Kb of 0.034 µM.

`CCc1cc(CC)c(OCCCCCC(C)(C)c2nn[n-]n2)cc1O.[Na+]` returned a Ki in assay [1] of 0.00514 µM. In the assay listed under Cavia porcellus, this compound gave a Kb of 0.167 µM. Besides, on Leukotriene B4 receptor, the IC50 is 0.179 µM.

The Kb is the affinity of an antagonist, worked out from how it opposes an agonist. A high value points to lower antagonist affinity. One may read the Ki as a dissociation constant, usually derived from enzyme kinetics or from competition with a known ligand. A higher Ki goes with weaker binding. As a reminder, the IC50 is the concentration needed to halve the response being measured. A higher IC50 goes with weaker potency in that assay.
